This experiment deals with L1210 leukemia ip in BDF1 mice, survival T/C. In words: NCI In Vivo Anticancer Drug Screen. Data for tumor model L1210 Leukemia (intraperitoneal) in B6D2F1 (BDF1) mice. The conditions noted are these: endpoint: mean survival time, higher = longer survival. In short, it runs like this:
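Tumor cells were implanted, animals were treated, and survival was followed. The result divides the treated measurement by the vehicle-control measurement.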

The mark [1] stands for this setting: dose: 100.0 mg/kg/injection, schedule: Q04DX003 (ip), vehicle: saline.
The mark [2] stands for this setting: dose: 200.0 mg/kg/injection, schedule: Q04DX003 (ip), vehicle: saline.
The mark [3] stands for this setting: dose: 400.0 mg/kg/injection, schedule: Q04DX003 (ip), vehicle: saline.
The mark [4] stands for this setting: dose: 100.0 mg/kg/injection, schedule: Q04DX002 (ip), vehicle: saline with Tween-80.
The mark [5] stands for this setting: dose: 200.0 mg/kg/injection, schedule: Q04DX002 (ip), vehicle: saline with Tween-80.
Where [6] appears, read: dose: 400.0 mg/kg/injection, schedule: Q04DX002 (ip), vehicle: saline with Tween-80.
The mark [7] stands for this setting: dose: 100.0 mg/kg/injection, schedule: Q01DX009 (ip), vehicle: Klucel (hydroxypropylcellulose) (HPC).
The mark [8] stands for this setting: dose: 100.0 mg/kg/injection, schedule: Q04DX003 (ip), vehicle: Klucel (hydroxypropylcellulose) (HPC).
[9] abbreviates: dose: 400.0 mg/kg/injection, schedule: Q04DX003 (ip), vehicle: Klucel (hydroxypropylcellulose) (HPC).
Where [10] appears, read: dose: 100.0 mg/kg/injection, schedule: Q01DX001 (ip), vehicle: saline.
The mark [11] stands for this setting: dose: 100.0 mg/kg/injection, schedule: Q04DX002 (ip), vehicle: Klucel (hydroxypropylcellulose) (HPC).
Setting [12] is: dose: 200.0 mg/kg/injection, schedule: Q04DX002 (ip), vehicle: Klucel (hydroxypropylcellulose) (HPC).
Where [13] appears, read: dose: 100.0 mg/kg/injection, schedule: Q01DX001 (ip), vehicle: carboxymethylcellulose (CMC).
The mark [14] stands for this setting: dose: 200.0 mg/kg/injection, schedule: Q01DX001 (ip), vehicle: carboxymethylcellulose (CMC).
[15] abbreviates: dose: 400.0 mg/kg/injection, schedule: Q01DX001 (ip), vehicle: carboxymethylcellulose (CMC).
Where [16] appears, read: dose: 200.0 mg/kg/injection, schedule: Q01DX001 (ip), vehicle: saline.
Where [17] appears, read: dose: 400.0 mg/kg/injection, schedule: Q01DX001 (ip), vehicle: saline.
Where [18] appears, read: dose: 100.0 mg/kg/injection, schedule: Q04DX003 (ip), vehicle: saline with Tween-80.
Setting [19] is: dose: 200.0 mg/kg/injection, schedule: Q04DX003 (ip), vehicle: saline with Tween-80.
Where [20] appears, read: dose: 100.0 mg/kg/injection, schedule: Q01DX009 (ip), vehicle: saline with Tween-80.

This passage reports T/C results from PubChem BioAssay AID248 (DTP/NCI, 2004).

Several values for one entry are separate records, joined by “and”; a condition that tells them apart may be missing. Equal values may be shown once. Inconclusive results and toxic doses are left out.

As to `Cc1ccc(NP(N)(=O)Nc2ccc(C)cc2)cc1`, the T/C (dose: 50.0 mg/kg/injection, schedule: Q01DX001 (ip), vehicle: alcohol) was 102 % of control; the T/C (dose: 100.0 mg/kg/injection, schedule: Q01DX001 (ip), vehicle: alcohol) was 102 % of control; the T/C (dose: 200.0 mg/kg/injection, schedule: Q01DX001 (ip), vehicle: alcohol) was 108 % of control; the T/C (dose: 400.0 mg/kg/injection, schedule: Q01DX001 (ip), vehicle: alcohol) was 96 % of control.
Consider `NC(=O)CC1(O)CCCCC1`, for which the T/C under setting [1] was 114 % of control, the T/C under setting [2] was 97 % of control and the T/C under setting [3] is 97 % of control.
Regarding `O=S(=O)(c1ccccc1)n1c(C(O)c2cccnc2)cc2ccccc21` (configuration not stated), the T/C reads like this: under setting [4], 93 % of control; under setting [5], 100 % of control; under setting [6], 90 % of control.
Consider `O=C1c2ccccc2C(=O)N1CNc1ccccc1`, for which the T/C is, setting by setting: under setting [7], 103 % of control; under setting [8], 104 % of control; (dose: 200.0 mg/kg/injection, schedule: Q01DX009 (ip), vehicle: Klucel (hydroxypropylcellulose) (HPC)) 98 % of control; (dose: 200.0 mg/kg/injection, schedule: Q04DX003 (ip), vehicle: Klucel (hydroxypropylcellulose) (HPC)) 102 % of control; (dose: 400.0 mg/kg/injection, schedule: Q01DX009 (ip), vehicle: Klucel (hydroxypropylcellulose) (HPC)) 93 % of control; under setting [9], 94 % of control.
With `CN=C(N)c1ccc(N=C(N)c2ccc(N=C(N)c3ccc(NC(=O)Nc4cccc(NC(=O)Nc5ccc(C(N)=Nc6ccc(C(N)=Nc7ccc(C(N)=NC)cc7)cc6)cc5)c4)cc3)cc2)cc1`, the T/C runs as follows: (dose: 0.25 mg/kg/injection, schedule: Q01DX015 (ip), vehicle: water) 109 % of control; (dose: 0.5 mg/kg/injection, schedule: Q01DX015 (ip), vehicle: water) 113 % of control; (dose: 1.0 mg/kg/injection, schedule: Q01DX015 (ip), vehicle: water) 121 % of control; (dose: 2.0 mg/kg/injection, schedule: Q01DX015 (ip), vehicle: water) 124 % of control; (dose: 37.5 mg/kg/injection, schedule: Q01DX001 (ip), vehicle: water) 177 % of control and 178 % of control and 187 % of control; (dose: 75.0 mg/kg/injection, schedule: Q01DX001 (ip), vehicle: water) 265 % of control and 278 % of control and 310 % of control.
Turning to `CN(C)c1ccc2nc3ccc(=[N+](C)C)cc-3sc2c1`, the T/C by setting is: (dose: 5.0 mg/kg/injection, schedule: Q01DX Z (ip), vehicle: carboxymethylcellulose (CMC)) 93 % of control and 90 % of control; (dose: 10.0 mg/kg/injection, schedule: Q01DX Z (ip), vehicle: carboxymethylcellulose (CMC)) 100 % of control and 92 % of control; (dose: 12.5 mg/kg/injection, schedule: Q01DX009 (ip), vehicle: saline) 107 % of control; (dose: 20.0 mg/kg/injection, schedule: Q01DX Z (ip), vehicle: carboxymethylcellulose (CMC)) 98 % of control and 92 % of control; (dose: 25.0 mg/kg/injection, schedule: Q01DX001 (ip), vehicle: saline) 102 % of control; (dose: 25.0 mg/kg/injection, schedule: Q01DX009 (ip), vehicle: saline) 94 % of control. Moreover, the T/C was 105 % of control (dose: 40.0 mg/kg/injection, schedule: Q01DX Z (ip), vehicle: carboxymethylcellulose (CMC)); 97 % of control (dose: 50.0 mg/kg/injection, schedule: Q01DX001 (ip), vehicle: saline); 103 % of control (dose: 50.0 mg/kg/injection, schedule: Q01DX009 (ip), vehicle: saline); 108 % of control under setting [10].
`Cc1ccc2ccccc2c1`: the T/C is, setting by setting: under setting [11], 91 % of control; under setting [12], 95 % of control.
In the case of `O=c1[nH]c2c(Br)c([N+](=O)[O-])c(Br)cc2c2ccc(Br)cc12`, the T/C is, setting by setting: under setting [13], 100 % of control; under setting [14], 98 % of control; under setting [15], 91 % of control.
Regarding `c1ccc(C2(c3ccccc3)c3ccc([nH]3)C(c3ccccc3)(c3ccccc3)c3ccc([nH]3)C(c3ccccc3)(c3ccccc3)c3ccc([nH]3)C(c3ccccc3)(c3ccccc3)c3ccc2[nH]3)cc1`, the T/C was 97 % of control under setting [10], 100 % of control under setting [16] and 100 % of control under setting [17].
Take `CC(=O)Nc1ccc2c(c1)C(C)c1ccccc1-2` (configuration not stated): the T/C reads like this: under setting [13], 89 % of control; under setting [14], 95 % of control; under setting [15], 93 % of control.
As to `COCCN=C(N)C(N)=NCCOC`, the T/C is 102 % of control under setting [18]; 97 % of control under setting [1]; 102 % of control under setting [19]; 100 % of control under setting [2]; 95 % of control (dose: 400.0 mg/kg/injection, schedule: Q04DX003 (ip), vehicle: saline with Tween-80); 88 % of control under setting [3].
On to `NCC12CC3CC(CC(C3)C1)C2`, for which the T/C by setting is: (dose: 25.0 mg/kg/injection, schedule: Q01DX009 (ip), vehicle: Klucel (hydroxypropylcellulose) (HPC)) 107 % of control; (dose: 25.0 mg/kg/injection, schedule: Q04DX002 (ip), vehicle: Klucel (hydroxypropylcellulose) (HPC)) 111 % of control; (dose: 50.0 mg/kg/injection, schedule: Q01DX009 (ip), vehicle: Klucel (hydroxypropylcellulose) (HPC)) 93 % of control; (dose: 50.0 mg/kg/injection, schedule: Q04DX002 (ip), vehicle: Klucel (hydroxypropylcellulose) (HPC)) 107 % of control; under setting [7], 90 % of control; under setting [11], 96 % of control and 104 % of control.
Turning to `CCCCCCCCC(SC#N)C(CCCCCCCC(=O)O)SC#N` (configuration not stated), the T/C is 100 % of control under setting [11]; 95 % of control under setting [12]; 106 % of control (dose: 400.0 mg/kg/injection, schedule: Q04DX002 (ip), vehicle: Klucel (hydroxypropylcellulose) (HPC)).
As to `C[n+]1c(O)c(C(=O)CCl)n2cc([N+](=O)[O-])ccc21`, the T/C under setting [10] was 100 % of control, the T/C under setting [16] was 92 % of control and the T/C under setting [17] was 101 % of control.
Turning to `O=[N+]([O-])c1ccc(S)cc1`, the T/C reads like this: (dose: 100.0 mg/kg/injection, schedule: Q01DX009 (ip), vehicle: saline sonified) 103 % of control; under setting [8], 89 % of control; (dose: 200.0 mg/kg/injection, schedule: Q01DX009 (ip), vehicle: saline sonified) 91 % of control; (dose: 400.0 mg/kg/injection, schedule: Q01DX009 (ip), vehicle: saline sonified) 92 % of control; under setting [9], 90 % of control.
For `C#CC(CC(C)CC(C)(C)C)N(C)C` (configuration not stated), the T/C runs as follows: (dose: 25.0 mg/kg/injection, schedule: Q01DX009 (ip), vehicle: saline with Tween-80) 92 % of control; (dose: 50.0 mg/kg/injection, schedule: Q01DX009 (ip), vehicle: saline with Tween-80) 92 % of control; under setting [20], 101 % of control.
For `c1ccc2c[n+](C[n+]3ccc4ccccc4c3)ccc2c1`, the T/C under setting [1] was 103 % of control and the T/C under setting [2] was 105 % of control.
With `O=C(/C=C/c1ccccc1)NC(=S)Nc1cc(C(F)(F)F)ccc1Cl`, the T/C by setting is: (dose: 100.0 mg/kg/injection, schedule: Q01DX001 (ip), vehicle: saline with Tween-80) 103 % of control; under setting [20], 92 % of control and 86 % of control; under setting [4], 98 % of control and 90 % of control; under setting [18], 100 % of control; (dose: 200.0 mg/kg/injection, schedule: Q01DX001 (ip), vehicle: saline with Tween-80) 95 % of control; (dose: 200.0 mg/kg/injection, schedule: Q01DX009 (ip), vehicle: saline with Tween-80) 92 % of control and 90 % of control. Further, the T/C under setting [5] is 93 % of control and 114 % of control; the T/C under setting [19] was 94 % of control; the T/C (dose: 400.0 mg/kg/injection, schedule: Q01DX001 (ip), vehicle: saline with Tween-80) was 101 % of control; the T/C (dose: 400.0 mg/kg/injection, schedule: Q01DX009 (ip), vehicle: saline with Tween-80) was 95 % of control and 89 % of control; the T/C under setting [6] is 95 % of control and 101 % of control.
